Earlier results, collected in patent US20260240770A1, “LIQUID FORMULATION COMPRISING TRILOSTANE” (NORBROOK LABORATORIES LIMITED, priority 2023, published 2026).

Settings: low water solubility and high membrane permeability

- BCS class: Class Two
Compound: C[C@]12CC[C@H]3[C@@H](CC[C@@]45O[C@@H]4C(O)=C(C#N)C[C@]35C)[C@@H]1CC[C@@H]2O [Trilostane, 4α,5-epoxy-3,17β-dihydroxy-5α-androst-2-ene-2-carbonitrile]
